Experimental data reported in US20230301981A1, “TLR7/8 ANTAGONISTS AND USES THEREOF” (Merck Patent GmbH, priority 2020, published 2023).
Read-outs that look alike come from different tables or passages of the source.

Assays:
TLR7 = target: T1, TLR7 (Homo sapiens, UniProt Q9NYK1); assay: HEK293 TLR7/NFKb reporter cell assay with R848 agonist; format: cell-based; design: expressed in transfected cells; host or cells: HEK293
T1 sequence (Q9NYK1 27-1049): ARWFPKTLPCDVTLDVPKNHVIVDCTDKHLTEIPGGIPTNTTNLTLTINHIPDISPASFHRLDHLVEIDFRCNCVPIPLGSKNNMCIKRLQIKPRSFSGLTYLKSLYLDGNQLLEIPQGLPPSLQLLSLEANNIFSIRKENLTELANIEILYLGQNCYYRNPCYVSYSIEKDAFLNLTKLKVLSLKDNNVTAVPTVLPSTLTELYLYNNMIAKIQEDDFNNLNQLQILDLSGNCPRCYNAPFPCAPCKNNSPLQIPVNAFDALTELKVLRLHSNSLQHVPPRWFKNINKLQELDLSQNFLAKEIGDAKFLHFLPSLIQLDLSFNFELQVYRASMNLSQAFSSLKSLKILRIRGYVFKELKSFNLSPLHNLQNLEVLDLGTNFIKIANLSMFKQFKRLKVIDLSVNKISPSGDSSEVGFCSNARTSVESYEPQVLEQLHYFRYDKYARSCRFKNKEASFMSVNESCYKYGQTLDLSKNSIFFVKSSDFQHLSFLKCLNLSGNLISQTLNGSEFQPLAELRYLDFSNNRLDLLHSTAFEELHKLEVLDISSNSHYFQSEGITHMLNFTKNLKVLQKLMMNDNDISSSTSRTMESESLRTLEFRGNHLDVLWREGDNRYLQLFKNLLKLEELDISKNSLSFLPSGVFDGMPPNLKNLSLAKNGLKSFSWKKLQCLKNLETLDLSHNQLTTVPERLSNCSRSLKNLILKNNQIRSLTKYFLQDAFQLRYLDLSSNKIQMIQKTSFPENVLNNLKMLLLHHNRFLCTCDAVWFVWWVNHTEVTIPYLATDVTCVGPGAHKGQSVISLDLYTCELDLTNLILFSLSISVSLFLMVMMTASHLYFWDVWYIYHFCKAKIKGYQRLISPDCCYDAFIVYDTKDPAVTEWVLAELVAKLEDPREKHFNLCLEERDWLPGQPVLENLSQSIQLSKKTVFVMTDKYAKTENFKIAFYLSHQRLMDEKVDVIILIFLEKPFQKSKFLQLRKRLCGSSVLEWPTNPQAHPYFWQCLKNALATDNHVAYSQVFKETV
Method: Into 384 CulturePlates (Corning 3707) was placed 5000 c/w of HEK293 TLR7/NFKb reporter cells in 30 µL DMEM without phenol red and 10% i.a. FCS and 2 mM L-glutamine. The cells were incubated for 24 h at 37° C., 10% carbon dioxide and 90% relative humidity. 3 µL of controls, standards, and compounds were dispensed to wells, incubated for 30 min then 3 µL of R848 agonist (Resiquimod) in 20 mM HEPES buffer was added. After incubation for 5 hours, it was allowed to stand at room temperature for 15 min. 10 µL of Steady-Glo substrate reagent was added and assay plates were shaken for 5 min at 1500 rpm. The assay plate was allowed to sit for 30 min at room temperature and then read on an EnVision plate reader.

[1] = test system: complex primary human cell systems; assay: BioMAP Diversity PLUS phenotypic panel; format: cell-based; details: hydroxychloroquine at 33 µM versus Pyronaridine at 3.3 µM
Method: Pyronaridine was profiled in the BioMAP® Diversity PLUS (BioSeek LLC, South San Francisco, CA) panel comprised of a well characterized set of complex primary human cell systems at 10, 3.3, 1.1, and 0.3 µM. Pyronaridine was tested across 12 BioMAP® Systems containing early passage primary human cells cultured alone or as cocultures and stimulated with various proinflammatory or immunomodulatory stimuli. […] A BioMAP activity profile was generated based on the levels of various readout parameters including cytokines or growth factors, expression of surface molecules, and cell proliferation. […]
Differentiating biomarkers are defined when one profile has a readout outside of the significance envelope with an effect size > 20% (|log10 ratio| > 0.1), and the readout for the other profile is either inside the envelope or in the opposite direction.

| Structure (SMILES) | IC50 (TLR7; Example 4 results table, assay/readout not specified, read-out: Potency) [µM] | IC50 (TLR7; HEK293 TLR7/NFKb reporter cells, R848 agonist, read-out: IC50 TLR7 (IL6 READOUT) HEK TRANSFECTED) [µM] | BioMAP Diversity PLUS profile, overlay comparison [1] |
| --- | --- | --- | --- |
| COc1ccc2nc3cc(Cl)ccc3c(Nc3cc(CN4CCCC4)c(O)c(CN4CCCC4)c3)c2n1 [Compound 1, Pyronaridine] | < 1 | 5 |  |
| CCN(CCO)CCCC(C)Nc1ccnc2cc(Cl)ccc12 (stereo not drawn) [HYDROXY-CHLOROQUINE HCQ, hydroxychloroquine] |  |  | noticeable similar pattern |
